Measurements from patent US11325955B2, “Stabilized anti-microbial peptides for the treatment of antibiotic-resistant bacterial infections” (priority 2017, dated 2022).
≈ marks a conversion by molar mass, not a printed value. Like-named read-outs stand apart in the source and are kept apart here. Positions of bridges follow the written chain, without caps; N, C: chain ends. Non-standard residues stand in square brackets, D forms with d. Residues, ends and D or L forms follow the SMILES beside them. S5 = C=CCCC[C@](C)(N)C(=O)O; Nle = CCCC[C@H](N)C(=O)O

Legend:
S aureus = type: cell-based
Method: (§1) The following microbroth dilution protocol was adapted to determine the minimum inhibitory concentration (MIC) of each peptide. First, Mueller-Hinton broth (MHB) was passed through an anion exchange column to remove polyanionic species and generate refined MHB. […] Briefly, bacterial cells were grown overnight in refined MHB at 37° C. and then diluted and allowed to grow again for several hours. Serial dilutions of peptide stocks in water (10 μl) were prepared using clear round-bottom polypropylene 96-well plates. Then 90 μl of bacteria in refined MHB was added to give a final inoculum of 5×10^5 CFU/ml. The plates were then covered with porous tape to reduce evaporation, and incubated for 20-24 hours at 37° C. The MIC is the minimum peptide concentration at which no visible growth was observed.

B cereus = type: cell-based
Method: as §1

P aeruginosa = type: cell-based
Method: as §1

E coli = type: cell-based
Method: as §1

[1] = system: E. coli clinical isolates that harbor the MCR-1 plasmid; type: cell-based
Method: (§2) StAMPs were screened against a panel of MDR clinical samples obtained from the Antimicrobial Resistance Isolate Bank of the Centers for Disease Control and Prevention (Atlanta, Ga.).
as §1
(§3) The first three StAMPs of Table 2 in Example 3 were then tested against 39 clinical isolates of A. baumannii with various degrees of colistin resistance (Table 3, 4).

[2] = system: A. baumannii clinical isolates; type: cell-based
Method: as §2, §1, §3

[3] = system: primary human renal proximal tubule epithelial cells (pRPTECs); details: 24-hour incubation, FIG. 1
Method: In one embodiment, pRPTECs are seeded at a density of 10,000 cells per well on 96 well plates and incubated for 48 hours at 37° C. Cells are then treated with different concentrations of the StAMP and incubated for another 24-to-48 hour period. Cell viability is then determined and/or lactate dehydrogenase (LDH) release is measured.
Briefly, pRPTECs in complete growth cell medium were seeded in a 96 well plate at a density of 10,000 cells per well and incubated at 37° C. for 48 hours. Complete medium was then removed and replaced with a toxicity assay medium to which various concentrations of StAMP were added. Cells were then further incubated for 24 to 48 hours after which cell medium was collected and assayed for the presence of Lactate Dehydrogenase (LDH) using a Cytotoxicity Detection Kit (LDH) (Roche).

Molecule: CCCC[C@H](NC(=O)[C@]1(C)CCCC=CCCC[C@](C)(NC(=O)[C@H](C)NC(=O)[C@H](CCCCN)NC(=O)CNC(=O)[C@H](Cc2ccccc2)NC(=O)[C@H](CCCCN)NC(=O)[C@H](Cc2c[nH]cn2)NC(=O)[C@H](CCCCN)NC(=O)[C@H](CO)NC(=O)[C@H](Cc2c[nH]cn2)NC(=O)[C@]2(C)CCCC=CCCC[C@](C)(NC(=O)CN)C(=O)NCC(=O)N[C@@H](Cc3c[nH]cn3)C(=O)N[C@@H](Cc3ccccc3)C(=O)N2)C(=O)N[C@@H](C(C)C)C(=O)NCC(=O)N[C@@H](CCC(=O)O)C(=O)N1)C(=O)N[C@@H](CC(N)=O)C(=O)N[C@@H](CO)C(N)=O [Mag(i+4)1,15(A9K, K4H, K10H), GXGHFXHSKHKFGKAXVGEXBNS] (H-G[S5]GHF[S5]HSKHKFGKA[S5]VGE[S5][Nle]NS-NH2; staple 2-6, 16-20)
- MIC S aureus (S aureus): >50 µg/mL
- MIC B cereus (B cereus): 50 µg/mL (≈ 19.7 µM)
- MIC P aeruginosa (P aeruginosa): 50 µg/mL (≈ 19.7 µM)
- MIC E coli (E coli): 3.1 µg/mL (≈ 1.22 µM)

Molecule: CCCC[C@H](NC(=O)[C@]1(C)CCCC=CCCC[C@](C)(NC(=O)[C@H](C)NC(=O)[C@H](CCCCN)NC(=O)CNC(=O)[C@H](Cc2ccccc2)NC(=O)[C@H](CCCCN)NC(=O)[C@H](CCCCN)NC(=O)[C@H](CCCCN)NC(=O)[C@H](CO)NC(=O)[C@H](Cc2c[nH]cn2)NC(=O)[C@]2(C)CCCC=CCCC[C@](C)(NC(=O)CN)C(=O)NCC(=O)N[C@@H](CCCNC(=N)N)C(=O)N[C@@H](Cc3ccccc3)C(=O)N2)C(=O)N[C@@H](C(C)C)C(=O)NCC(=O)N[C@@H](CCC(=O)O)C(=O)N1)C(=O)N[C@@H](CC(N)=O)C(=O)N[C@@H](CO)C(N)=O [Mag(i+4)1,15(A9K, K4R), GXGRFXHSKKKFGKAXVGEXBNS] (H-G[S5]GRF[S5]HSKKKFGKA[S5]VGE[S5][Nle]NS-NH2; staple 2-6, 16-20; N-terminus and C-terminus assumed)
- MIC S aureus (S aureus): >50 µg/mL
- MIC B cereus (B cereus): 12.5 µg/mL (≈ 4.91 µM)
- MIC P aeruginosa (P aeruginosa): 6.2 µg/mL (≈ 2.43 µM)
- MIC E coli (E coli): 3.1 µg/mL (≈ 1.22 µM)

Molecule: Colistin [reference compound]
- Antimicrobial Activity MIC ([1]; E. coli CDC Bank# 346, contains MCR-1 plasmid): 2.5 µg/mL
- Antimicrobial Activity MIC ([1]; E. coli CDC Bank# 349, contains MCR-1 plasmid): 1.2 µg/mL
- Antimicrobial Activity MIC ([2]; A. baumannii CDC Bank# 275): 1 µg/mL
- Antimicrobial Activity MIC ([2]; A. baumannii CDC Bank# 276): 2 µg/mL
- Antimicrobial Activity MIC ([2]; A. baumannii CDC Bank# 277): 1 µg/mL
- Antimicrobial Activity MIC ([2]; A. baumannii CDC Bank# 278): 1 µg/mL
- Antimicrobial Activity MIC ([2]; A. baumannii CDC Bank# 279): 1 µg/mL
- Antimicrobial Activity MIC ([2]; A. baumannii CDC Bank# 280): 1 µg/mL
- Antimicrobial Activity MIC ([2]; A. baumannii CDC Bank# 281): 1 µg/mL
- Antimicrobial Activity MIC ([2]; A. baumannii CDC Bank# 282): 0.5 µg/mL
- Antimicrobial Activity MIC ([2]; A. baumannii CDC Bank# 283): 1 µg/mL
- Antimicrobial Activity MIC ([2]; A. baumannii CDC Bank# 284): 1 µg/mL
- Antimicrobial Activity MIC ([2]; A. baumannii CDC Bank# 285): 1 µg/mL
- Antimicrobial Activity MIC ([2]; A. baumannii CDC Bank# 286): 0.5 µg/mL
- Antimicrobial Activity MIC ([2]; A. baumannii CDC Bank# 287): 1 µg/mL
- Antimicrobial Activity MIC ([2]; A. baumannii CDC Bank# 288): >8 µg/mL
- Antimicrobial Activity MIC ([2]; A. baumannii CDC Bank# 289): 2 µg/mL
- Antimicrobial Activity MIC ([2]; A. baumannii CDC Bank# 290): 1 µg/mL
- Antimicrobial Activity MIC ([2]; A. baumannii CDC Bank# 291): 1 µg/mL
- Antimicrobial Activity MIC ([2]; A. baumannii CDC Bank# 292): 1 µg/mL
- Antimicrobial Activity MIC ([2]; A. baumannii CDC Bank# 293): 0.5 µg/mL
- Antimicrobial Activity MIC ([2]; A. baumannii CDC Bank# 294): 1 µg/mL
- Antimicrobial Activity MIC ([2]; A. baumannii CDC Bank# 295): 1 µg/mL
- Antimicrobial Activity MIC ([2]; A. baumannii CDC Bank# 296): 0.5 µg/mL
- Antimicrobial Activity MIC ([2]; A. baumannii CDC Bank# 297): 1 µg/mL
- Antimicrobial Activity MIC ([2]; A. baumannii CDC Bank# 298): 0.5 µg/mL
- Antimicrobial Activity MIC ([2]; A. baumannii CDC Bank# 299): 2 µg/mL
- Antimicrobial Activity MIC ([2]; A. baumannii CDC Bank# 300): 1 µg/mL
- Antimicrobial Activity MIC ([2]; A. baumannii CDC Bank# 301): 0.5 µg/mL
- Antimicrobial Activity MIC ([2]; A. baumannii CDC Bank# 302): 2 µg/mL
- Antimicrobial Activity MIC ([2]; A. baumannii CDC Bank# 303): >8 µg/mL
- Antimicrobial Activity MIC ([2]; A. baumannii CDC Bank# 304): 4 µg/mL
- Antimicrobial Activity MIC ([2]; A. baumannii CDC Bank# 305): 1 µg/mL
- Antimicrobial Activity MIC ([2]; A. baumannii CDC Bank# 306): 1 µg/mL
- Antimicrobial Activity MIC ([2]; A. baumannii CDC Bank# 307): >8 µg/mL
- Antimicrobial Activity MIC ([2]; A. baumannii CDC Bank# 308): 8 µg/mL
- Antimicrobial Activity MIC ([2]; A. baumannii CDC Bank# 309): 8 µg/mL
- Antimicrobial Activity MIC ([2]; A. baumannii CDC Bank# 310): 8 µg/mL
- Antimicrobial Activity MIC ([2]; A. baumannii CDC Bank# 311): 1 µg/mL
- Antimicrobial Activity MIC ([2]; A. baumannii CDC Bank# 312): 0.5 µg/mL
- Antimicrobial Activity MIC ([2]; A. baumannii CDC Bank# 313): 1 µg/mL

Molecule: CCCC[C@H](NC(=O)[C@]1(C)CCCC=CCCC[C@](C)(NC(=O)[C@H](C)NC(=O)[C@H](CCCCN)NC(=O)CNC(=O)[C@H](Cc2ccccc2)NC(=O)[C@H](CCCCN)NC(=O)[C@H](CCCCN)NC(=O)[C@H](CCCCN)NC(=O)[C@H](CO)NC(=O)[C@H](Cc2c[nH]cn2)NC(=O)[C@]2(C)CCCC=CCCC[C@](C)(NC(=O)CN)C(=O)NCC(=O)N[C@@H](Cc3c[nH]cn3)C(=O)N[C@@H](Cc3ccccc3)C(=O)N2)C(=O)N[C@@H](C(C)C)C(=O)NCC(=O)N[C@@H](CCC(=O)O)C(=O)N1)C(=O)N[C@@H](CC(N)=O)C(=O)N[C@@H](CO)C(N)=O [Mag(i+4)1,15(A9K, K4H), GXGHFXHSKKKFGKAXVGEXBNS] (H-G[S5]GHF[S5]HSKKKFGKA[S5]VGE[S5][Nle]NS-NH2; staple 2-6, 16-20; N-terminus and C-terminus assumed)
- MIC S aureus (S aureus): >50 µg/mL
- MIC B cereus (B cereus): 25 µg/mL (≈ 9.89 µM)
- MIC P aeruginosa (P aeruginosa): 6.2 µg/mL (≈ 2.45 µM)
- MIC E coli (E coli): 3.1 µg/mL (≈ 1.23 µM)

Molecule: CCCC[C@H](NC(=O)[C@]1(C)CCCC=CCCC[C@](C)(NC(=O)[C@H](C)NC(=O)[C@H](CCCCN)NC(=O)CNC(=O)[C@H](Cc2ccccc2)NC(=O)[C@H](Cc2c[nH]cn2)NC(=O)[C@H](Cc2c[nH]cn2)NC(=O)[C@H](CCCCN)NC(=O)[C@H](CO)NC(=O)[C@H](Cc2c[nH]cn2)NC(=O)[C@]2(C)CCCC=CCCC[C@](C)(NC(=O)CN)C(=O)NCC(=O)N[C@@H](Cc3c[nH]cn3)C(=O)N[C@@H](Cc3ccccc3)C(=O)N2)C(=O)N[C@@H](C(C)C)C(=O)NCC(=O)N[C@@H](CCC(=O)O)C(=O)N1)C(=O)N[C@@H](CC(N)=O)C(=O)N[C@@H](CO)C(N)=O [Mag(i+4)1,15(A9K, K4H, K10H, K11H), GXGHFXHSKHHFGKAXVGEXBNS] (H-G[S5]GHF[S5]HSKHHFGKA[S5]VGE[S5][Nle]NS-NH2; staple 2-6, 16-20)
- MIC S aureus (S aureus): >50 µg/mL
- MIC B cereus (B cereus): >50 µg/mL
- MIC P aeruginosa (P aeruginosa): 50 µg/mL (≈ 19.6 µM)
- MIC E coli (E coli): 17.7 µg/mL (≈ 6.95 µM)

Molecule: CC(C)[C@@H]1NC(=O)[C@@](C)(NC(=O)[C@H](C)NC(=O)[C@H](CCCCN)NC(=O)CNC(=O)[C@H](Cc2ccccc2)NC(=O)[C@H](CCCCN)NC(=O)[C@H](CCCCN)NC(=O)[C@H](CCCCN)NC(=O)[C@H](CO)NC(=O)[C@H](Cc2c[nH]cn2)NC(=O)[C@]2(C)CCCC=CCCC[C@](C)(NC(=O)CN)C(=O)NCC(=O)N[C@@H](CCCCN)C(=O)N[C@@H](Cc3ccccc3)C(=O)N2)CCCC=CCCC[C@@](C)(C(=O)N[C@@H](C)C(=O)N[C@@H](CC(N)=O)C(=O)N[C@@H](CO)C(N)=O)NC(=O)[C@H](CCC(=O)O)NC(=O)CNC1=O [Mag(i+4)1,15(A9K, B21A), GXGKFXHSKKKFGKAXVGEXANS] (H-G[S5]GKF[S5]HSKKKFGKA[S5]VGE[S5]ANS-NH2; staple 2-6, 16-20)
- pRPTEC lysis (% LDH release) relative to Mag(i+4)1,15(A9K) [3]: significantly attenuated pRPTEC lysis
- MIC S aureus (S aureus): >50 µg/mL
- MIC B cereus (B cereus): 50 µg/mL (≈ 20.2 µM)
- MIC P aeruginosa (P aeruginosa): 8.8 µg/mL (≈ 3.55 µM)
- MIC E coli (E coli): 6.2 µg/mL (≈ 2.5 µM)

Molecule: CCCC[C@H](NC(=O)[C@]1(C)CCCC=CCCC[C@](C)(NC(=O)[C@H](C)NC(=O)[C@H](CCCCN)NC(=O)CNC(=O)[C@H](Cc2ccccc2)NC(=O)[C@H](CCCCN)NC(=O)[C@H](CCCNC(=N)N)NC(=O)[C@H](CCCCN)NC(=O)[C@H](CO)NC(=O)[C@H](Cc2c[nH]cn2)NC(=O)[C@]2(C)CCCC=CCCC[C@](C)(NC(=O)CN)C(=O)NCC(=O)N[C@@H](CCCNC(=N)N)C(=O)N[C@@H](Cc3ccccc3)C(=O)N2)C(=O)N[C@@H](C(C)C)C(=O)NCC(=O)N[C@@H](CCC(=O)O)C(=O)N1)C(=O)N[C@@H](CC(N)=O)C(=O)N[C@@H](CO)C(N)=O [Mag(i+4)1,15(A9K, K4R, K10R), GXGRFXHSKRKFGKAXVGEXBNS] (H-G[S5]GRF[S5]HSKRKFGKA[S5]VGE[S5][Nle]NS-NH2; staple 2-6, 16-20)
- MIC S aureus (S aureus): >50 µg/mL
- MIC B cereus (B cereus): 12.5 µg/mL (≈ 4.85 µM)
- MIC P aeruginosa (P aeruginosa): 6.2 µg/mL (≈ 2.41 µM)
- MIC E coli (E coli): 3.1 µg/mL (≈ 1.2 µM)
